Experimental data reported in patent publication US12016918B2, “Peptide-containing adjuvant compounds having peg spacers” (UNIVERSITEIT LEIDEN, priority 2017, dated 2024).
Non-standard residues stand in square brackets, D forms with d. *: point of attachment. O(CH2CH2O)3CH2C(O) = O=C(COCCOCCOCCO)*; AEEEA = NCCOCCOCCOCC(=O)O; Carbamoyl = NC(=O)*; Cy5 = Cy5 label

Legend:
Type in all cases: cell-based
[1] = system: mouse D1-cells; assay: Uptake by mouse D1-cells (confocal laser scanning microscopy); conditions: 1 μM, 15 min incubation; Cy5-labeled conjugate; endo-lysosomal compartments; FIG. 4B
Experimental: The cells were incubated for 15 min with compound 10 (1 μM). The uptake and localization of the compounds were analyzed with confocal laser scanning microscopy. The images are representative for multiple cells in at least 3 experiments.

[2] = system: human moDC; assay: Uptake by human moDC (confocal laser scanning microscopy); conditions: 1 μM, 15 min incubation; Cy5-labeled conjugate; endo-lysosomal compartments; FIG. 4A
Experimental: The cells were incubated for 15 min with compound 10 (1 μM). The uptake and localization of the compounds were analyzed with confocal laser scanning microscopy. The images are representative for multiple cells in at least 3 experiments; and […]

[3] = target: T1, human TLR2 (Homo sapiens, UniProt O60603); assay: HEK293-TLR2 activation assay (IL-8 production); conditions: for activation of TLR2 HEK cells (human IL-8 production via TLR-2): HEK TLR-2 cells incubated with titrated amounts of compound, IL-8 in supernatant by ELISA, FIG. 2A/3A; for TLR2-mediated bio-activity compared to reference ligands: compared to compound 1 and 5 and chirally pure Pam3CSK4 (Pam-R), HEK TLR2 cells and human DC, FIG. 2
T1 construct: host or cells: HEK293
Experimental: (a) HEK TLR-2 cells were incubated with titrated amounts of test compounds or controls for 24 h;
The HEK-TLR2 reporter cell line and HEK293 cells stably transfected with human TLR2 were obtained from Invivogen, Toulouse, France. HEK-TLR2 cells were cultured in complete IMDM medium, supplemented with 500 μg/mL Geneticin. Test compounds were titrated in a flat-bottom 96-well plate (Corning, Amsterdam, The Netherlands) in complete IMDM medium to which 20 000 HEK-TLR2 cells per well were added. After 48 h of incubation at 37° C., the supernatant was taken from the wells for ELISA analysis (BioLegend, San Diego, CA) to determine the amount of IL-8 that was produced as a measure for TLR2-mediated activation.

[4] = system: human monocyte-derived dendritic cells; assay: Activation of human dendritic cells (IL-12 cytokine secretion by ELISA); conditions: human DCs stimulated with titrated amounts of compound; IL-12 by ELISA; FIG. 2B/3B
Text: One representative from three independent experiments is shown (error bars represent SD);
DCs were stimulated with titrated amounts of test compounds or controls. Supernatants were harvested and analyzed for IL-12 cytokine secretion by ELISA as in FIG. 2B;

T1 sequence (O60603 21-784): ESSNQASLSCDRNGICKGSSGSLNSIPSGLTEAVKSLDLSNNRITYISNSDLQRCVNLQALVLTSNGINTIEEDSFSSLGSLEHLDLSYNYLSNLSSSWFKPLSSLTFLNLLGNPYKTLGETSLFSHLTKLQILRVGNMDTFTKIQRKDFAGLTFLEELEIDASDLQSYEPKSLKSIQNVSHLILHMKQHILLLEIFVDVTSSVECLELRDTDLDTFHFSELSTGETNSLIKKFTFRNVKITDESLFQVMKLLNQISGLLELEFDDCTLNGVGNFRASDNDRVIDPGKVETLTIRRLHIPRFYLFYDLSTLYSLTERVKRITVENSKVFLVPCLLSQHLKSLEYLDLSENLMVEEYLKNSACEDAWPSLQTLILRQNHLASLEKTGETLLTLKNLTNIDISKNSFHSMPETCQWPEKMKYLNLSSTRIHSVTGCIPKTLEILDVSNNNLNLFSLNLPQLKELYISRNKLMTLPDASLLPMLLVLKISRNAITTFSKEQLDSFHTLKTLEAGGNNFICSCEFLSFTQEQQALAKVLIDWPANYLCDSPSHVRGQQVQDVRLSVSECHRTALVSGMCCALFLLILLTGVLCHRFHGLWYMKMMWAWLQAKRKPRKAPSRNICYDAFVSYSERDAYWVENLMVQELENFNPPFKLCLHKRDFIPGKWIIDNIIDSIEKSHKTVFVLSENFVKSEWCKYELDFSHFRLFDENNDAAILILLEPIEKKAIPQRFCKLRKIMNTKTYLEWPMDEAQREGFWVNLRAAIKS

Row | activation of TLR2 HEK cells (human IL-8 production via TLR-2) [3] | TLR2-mediated bio-activity compared to reference ligands [3] | Compound | dendritic cell uptake, murine [1] | dendritic cell uptake, human [2] | activation of human monocyte-derived dendritic cells (IL-12 secretion) [4]
1 | intact bio-activity |  | NH2C(O)NH-Cys(EtOC(O)C15H31)-Ser(OH)—O(CH2CH2O)3CH2C(O)NH-DEVSGLEQLESIINFEK(^Cy5)L-OH ({Carbamoyl-Cys(EtOC(O)C15H31)-Ser-O(CH2CH2O)3CH2C(O)}-DEVSGLEQLESIINFEK(Cy5)L-OH) [Compound 10, Cy5 fluorophore-labeled conjugate from 27] | efficient engulfment | efficient engulfment | intact bio-activity
2 | excellent capacity to activate | improved | CCCCCCCCCCCCCCCC(=O)OCCSCC[C@H](NC(N)=O)C(=O)N[C@@H](CO)C(=O)NCCOCCOCCOCC(=O)O [Compound 7, (14S,17 S)-14-(hydroxymethyl)-13,16,24-trioxo-17-ureido-3,6,9,23-tetraoxa-20-thia-12,15-diazanonatriacontanoic acid] |  |  | excellent capacity to activate
3 | intact bio-activity |  | NH2C(O)NH-Cys(EtOC(O)C15H31)-Ser(OH)—NH(CH2CH2O)3CH2C(O)NH-DEVSGLEQLESIINFEK(^Cy5)L-OH ({Carbamoyl-Cys(EtOC(O)C15H31)}-S[AEEEA]DEVSGLEQLESIINFEK(Cy5)L-OH) [Compound 11, Cy5 fluorophore-labeled conjugate from 28] |  |  | intact bio-activity
4 | excellent capacity to activate | improved | CCCCCCCCCCCCCCCC(=O)OCCSCC[C@H](NC(N)=O)C(=O)N[C@@H](CO)C(=O)OCCOCCOCCOCC(=O)O [Compound 6, (14S,17S)-14-(hydroxymethyl)-13,16,24-trioxo-17-ureido-3,6,9,12,23-pentaoxa-20-thia-15-azanonatriacontanoic acid] |  |  | excellent capacity to activate
5 | intact bio-activity |  | NH2C(O)NH-Cys(EtOC(O)C15H31)-Ser(OH)—O(CH2CH2O)3CH2C(O)NH-DEVSGLEQLESIINFEKL-OH ({Carbamoyl-Cys(EtOC(O)C15H31)-Ser-O(CH2CH2O)3CH2C(O)}-DEVSGLEQLESIINFEKL-OH) [Compound 8] |  |  | intact bio-activity
6 | intact bio-activity |  | NH2C(O)NH-Cys(EtOC(O)C15H31)-Ser(OH)—NH(CH2CH2O)3CH2C(O)NH-DEVSGLEQLESIINFEKL-OH ({Carbamoyl-Cys(EtOC(O)C15H31)}-S[AEEEA]DEVSGLEQLESIINFEKL-OH) [Compound 9] |  |  | intact bio-activity
